Experimental data taken from ChEMBL document CHEMBL1147393, “Two new modified trichothecenes from Fusarium sporotrichioides” (J Nat Prod, 1993).

Assay: Cytotoxicity against syrian golden hamsters BHK21 cells
Type: cell-based, Mesocricetus auratus
Conditions: hamster, bhk-21

Row | Structure (SMILES) | LC100 [ng/mL]
1 | CC(=O)O[C@]12CO[C@@H]3C=C(C)CC[C@]3(C)[C@@]1(C)C[C@@H](O)C2 | 1000
2 | CC1=C[C@H]2OC[C@]3(O)C[C@H](O)C[C@]3(C)[C@@]2(C)CC1 | 1000
